Reference: patent publication US5358961A, “Pyrrolidine derivatives” (Jin Ro Limited, priority 1991, dated 1994)

Target: T1, angiotensin converting enzyme (Oryctolagus cuniculus, UniProt P12822)
T1 construct: Rabbit lung acetone powder was extracted with 10 volumes of 50 mM sodium borate buffer; from tissue; host or cells: rabbit lung (acetone powder, borate buffer extract, 40,000 x g supernatant)
T1 sequence (P12822 34-1310): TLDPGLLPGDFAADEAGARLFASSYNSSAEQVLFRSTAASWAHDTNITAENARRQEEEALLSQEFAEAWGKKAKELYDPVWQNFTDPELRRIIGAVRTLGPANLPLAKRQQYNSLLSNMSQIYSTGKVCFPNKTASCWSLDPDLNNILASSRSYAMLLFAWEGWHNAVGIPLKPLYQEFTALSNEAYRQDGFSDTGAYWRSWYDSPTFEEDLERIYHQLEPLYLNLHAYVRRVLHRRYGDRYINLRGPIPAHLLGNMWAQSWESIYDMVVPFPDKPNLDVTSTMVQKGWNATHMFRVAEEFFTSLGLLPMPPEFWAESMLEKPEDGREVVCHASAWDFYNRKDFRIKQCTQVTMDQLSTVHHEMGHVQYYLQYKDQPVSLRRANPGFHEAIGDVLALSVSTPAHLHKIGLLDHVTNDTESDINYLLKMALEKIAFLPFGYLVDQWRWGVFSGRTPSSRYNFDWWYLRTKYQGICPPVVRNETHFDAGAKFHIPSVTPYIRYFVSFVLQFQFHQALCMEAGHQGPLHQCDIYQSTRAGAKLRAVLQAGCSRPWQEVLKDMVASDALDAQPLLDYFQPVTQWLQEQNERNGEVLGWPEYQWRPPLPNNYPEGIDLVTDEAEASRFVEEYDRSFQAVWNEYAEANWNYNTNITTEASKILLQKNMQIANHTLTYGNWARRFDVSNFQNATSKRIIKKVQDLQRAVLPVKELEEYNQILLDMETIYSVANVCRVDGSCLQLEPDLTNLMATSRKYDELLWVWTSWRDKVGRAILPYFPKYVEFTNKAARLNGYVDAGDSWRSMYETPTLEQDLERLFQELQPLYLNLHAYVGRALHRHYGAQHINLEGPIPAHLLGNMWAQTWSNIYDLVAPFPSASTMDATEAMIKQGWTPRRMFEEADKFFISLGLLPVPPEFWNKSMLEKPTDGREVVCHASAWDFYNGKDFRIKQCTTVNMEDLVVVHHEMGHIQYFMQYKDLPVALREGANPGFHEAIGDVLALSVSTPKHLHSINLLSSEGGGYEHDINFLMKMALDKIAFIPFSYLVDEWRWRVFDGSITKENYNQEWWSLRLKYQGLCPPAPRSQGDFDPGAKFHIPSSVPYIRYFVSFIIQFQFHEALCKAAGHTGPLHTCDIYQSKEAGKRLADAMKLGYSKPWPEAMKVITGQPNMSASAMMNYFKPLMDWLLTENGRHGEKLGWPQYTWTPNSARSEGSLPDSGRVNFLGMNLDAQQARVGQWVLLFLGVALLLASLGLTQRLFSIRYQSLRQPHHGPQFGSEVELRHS
Test: Inhibitory activity of angiotensin converting enzyme (rabbit lung acetone powder extract, HHL substrate, modified Cushman method)
Assay type: biochemical
Settings: preincubated 30 minutes, reacted with HHL at 37° C. for 30 minutes; for inhibition at 0.0002 µM: inhibitor concentration 2 × 10^-4 μM; for inhibition at 20 pM: inhibitor concentration 2 × 10^-5 μM
Protocol: The inhibitory activity of angiotensin converting enzyme for the compounds of this invention prepared by above examples was determined as follows;
The inhibitory activity was determined by using a modification of the method of Cushman, et al. [Biochemical Pharmacology, 20, 1637(1971)] Rabbit lung acetone powder was extracted with 10 volumes of 50 mM sodium borate buffer solution(pH 8.3) by homogenization at 4° C. and centrifuged for 40 minutes at 40,000 ×g.
The supernatant which contained angiotensin converting enzyme was used for ACE assay. Hippuryl-L-histidyl-L-leucine(HHL) was used as a substrate of enzymatic reaction and the reaction was determined in 13×100 mm of test tube.
The assay mixture (total volume, 0.25 ml) consisted of 50 mM sodium borate buffer (pH 8.3), 300 mM sodium chloride, and 5 mM HHL(pH 8.3), and they were reacted by addition of 0~10 mU of rabbit lung acetone powder extract for 30 minutes at 37° C.
The volume of enzyme extract was 0.15 ml or below and the reaction solution was preincubated at 37° C. for 30 minutes without the substrate and after adding HHL reacted for 30 minutes, the reaction was terminated by addition of 0.25 ml of 1N-HCl aqueous solution.
In the case of blank assay, hydrochloric acid was added before adding the enzyme extract. Hippuric acid was extracted with 1.5 ml of ethyl acetate which was separated by centrifuging at 3,000 rpm for 10 minutes. 1.0ml of ethyl acetate layer was transferred into the test tube and evaporated at 90° C. for 1 hour on temp-block.
Hippuric acid was dissolved in 1.0 ml of 50 mM sodium borate buffer (pH 8.3) and qualified from its absorbance at 228 nm. The final concentration of inhibitor was adjusted to 2×10^-4, 2×10^-5 μM with sodium borate buffer solution(pH 8.3) and reaction solution without the substrate was preincubated for 30 minutes and after adding the substrate, it was reacted at 37° C. for 30 minutes and terminated with 1N-HCl.
The synthesized inhibitors with non-water soluble property were dissolved by ultrasonic treatment.

SMILES	inhibition at 0.0002 µM [%]	inhibition at 20 pM [%]
CCCCCCCCCCCCCCCCCCOCC(COP(=O)(O)SC[C@@H](C)C(=O)N1CCC[C@H]1C(=O)OCc1ccc([N+](=O)[O-])cc1)OC(=O)CCCCCCCCCCCCCCC (mixture of isomers) [Compound 1, rac-1-O-octadecyl-2-O-palmitoyl-glyceryl-3-phosphorylcaptopril-p-nitrobenzyl ester]	77	39
CCCCCCCCCCCCCCCCCCOCC(COP(=O)(O)SC[C@@H](C)C(=O)N1CCC[C@H]1C(=O)O)OC(=O)CCCCCCCCCCCCCCC (mixture of isomers) [Compound 2, rac-1-O-octadecyl-2-O-palmitoyl-glyceryl-3-phosphoryl captopril]	97	80
CCCCCCCCCCCCCCCCCCOCC(COP(=O)(O)SC[C@@H](C)C(=O)N1CCC[C@H]1C(=O)OCc1ccc([N+](=O)[O-])cc1)OC(C)=O (mixture of isomers) [Compound 3, rac-1-O-octadecyl-2-O-acetyl-glyceryl-3-phosphoryl captopril-p-nitrobenzyl ester]	85	60
CCCCCCCCCCCCCCCCCCOCC(COP(=O)(O)SC[C@@H](C)C(=O)N1CCC[C@H]1C(=O)O)OC(C)=O (mixture of isomers) [Compound 4, rac-1-O-octadecyl-2-O-acetyl-glyceryl-3-phosphoryl captopril]	98	98
CCCCCCCCCCCCCCCCCCSCC(COP(=O)(O)SC[C@@H](C)C(=O)N1CCC[C@H]1C(=O)OCc1ccc([N+](=O)[O-])cc1)OC(=O)CCCCCCCCCCCCCCC (mixture of isomers) [Compound 5, rac-1-S-octadecyl-2-O-palmitoyl-thioglyceryl-3-phosphoryl captopril-p-nitrobenzyl ester]	31	4
CCCCCCCCCCCCCCCCCCSCC(COP(=O)(O)SC[C@@H](C)C(=O)N1CCC[C@H]1C(=O)O)OC(=O)CCCCCCCCCCCCCCC (mixture of isomers) [Compound 6, rac-1-S-octadecyl-2-O-palmitoyl-thioglyceryl-3-phosphoryl captopril]	92	70
CCCCCCCCCCCCCCCCCCSCC(COP(=O)(O)SC[C@@H](C)C(=O)N1CCC[C@H]1C(=O)OCc1ccc([N+](=O)[O-])cc1)OC(C)=O (mixture of isomers) [Compound 7, rac-1-S-octadecyl-2-O-acetyl-thioglyceryl-3-phosphoryl captopril-p-nitrobenzyl ester]	78	43
CCCCCCCCCCCCCCCCCCSCC(COP(=O)(O)SC[C@@H](C)C(=O)N1CCC[C@H]1C(=O)O)OC(C)=O (mixture of isomers) [Compound 8, rac-1-S-octadecyl-2-O-acetyl-thioglyceryl-3-phosphoryl captopril]	90	80
